Structures are written as SMILES.

The first assay deals with T1, CaV2.2 (Homo sapiens, UniProt Q00975).
T1 construct: expressed in transfected cells; host or cells: HEK293
T1 sequence (Q00975 whole entry): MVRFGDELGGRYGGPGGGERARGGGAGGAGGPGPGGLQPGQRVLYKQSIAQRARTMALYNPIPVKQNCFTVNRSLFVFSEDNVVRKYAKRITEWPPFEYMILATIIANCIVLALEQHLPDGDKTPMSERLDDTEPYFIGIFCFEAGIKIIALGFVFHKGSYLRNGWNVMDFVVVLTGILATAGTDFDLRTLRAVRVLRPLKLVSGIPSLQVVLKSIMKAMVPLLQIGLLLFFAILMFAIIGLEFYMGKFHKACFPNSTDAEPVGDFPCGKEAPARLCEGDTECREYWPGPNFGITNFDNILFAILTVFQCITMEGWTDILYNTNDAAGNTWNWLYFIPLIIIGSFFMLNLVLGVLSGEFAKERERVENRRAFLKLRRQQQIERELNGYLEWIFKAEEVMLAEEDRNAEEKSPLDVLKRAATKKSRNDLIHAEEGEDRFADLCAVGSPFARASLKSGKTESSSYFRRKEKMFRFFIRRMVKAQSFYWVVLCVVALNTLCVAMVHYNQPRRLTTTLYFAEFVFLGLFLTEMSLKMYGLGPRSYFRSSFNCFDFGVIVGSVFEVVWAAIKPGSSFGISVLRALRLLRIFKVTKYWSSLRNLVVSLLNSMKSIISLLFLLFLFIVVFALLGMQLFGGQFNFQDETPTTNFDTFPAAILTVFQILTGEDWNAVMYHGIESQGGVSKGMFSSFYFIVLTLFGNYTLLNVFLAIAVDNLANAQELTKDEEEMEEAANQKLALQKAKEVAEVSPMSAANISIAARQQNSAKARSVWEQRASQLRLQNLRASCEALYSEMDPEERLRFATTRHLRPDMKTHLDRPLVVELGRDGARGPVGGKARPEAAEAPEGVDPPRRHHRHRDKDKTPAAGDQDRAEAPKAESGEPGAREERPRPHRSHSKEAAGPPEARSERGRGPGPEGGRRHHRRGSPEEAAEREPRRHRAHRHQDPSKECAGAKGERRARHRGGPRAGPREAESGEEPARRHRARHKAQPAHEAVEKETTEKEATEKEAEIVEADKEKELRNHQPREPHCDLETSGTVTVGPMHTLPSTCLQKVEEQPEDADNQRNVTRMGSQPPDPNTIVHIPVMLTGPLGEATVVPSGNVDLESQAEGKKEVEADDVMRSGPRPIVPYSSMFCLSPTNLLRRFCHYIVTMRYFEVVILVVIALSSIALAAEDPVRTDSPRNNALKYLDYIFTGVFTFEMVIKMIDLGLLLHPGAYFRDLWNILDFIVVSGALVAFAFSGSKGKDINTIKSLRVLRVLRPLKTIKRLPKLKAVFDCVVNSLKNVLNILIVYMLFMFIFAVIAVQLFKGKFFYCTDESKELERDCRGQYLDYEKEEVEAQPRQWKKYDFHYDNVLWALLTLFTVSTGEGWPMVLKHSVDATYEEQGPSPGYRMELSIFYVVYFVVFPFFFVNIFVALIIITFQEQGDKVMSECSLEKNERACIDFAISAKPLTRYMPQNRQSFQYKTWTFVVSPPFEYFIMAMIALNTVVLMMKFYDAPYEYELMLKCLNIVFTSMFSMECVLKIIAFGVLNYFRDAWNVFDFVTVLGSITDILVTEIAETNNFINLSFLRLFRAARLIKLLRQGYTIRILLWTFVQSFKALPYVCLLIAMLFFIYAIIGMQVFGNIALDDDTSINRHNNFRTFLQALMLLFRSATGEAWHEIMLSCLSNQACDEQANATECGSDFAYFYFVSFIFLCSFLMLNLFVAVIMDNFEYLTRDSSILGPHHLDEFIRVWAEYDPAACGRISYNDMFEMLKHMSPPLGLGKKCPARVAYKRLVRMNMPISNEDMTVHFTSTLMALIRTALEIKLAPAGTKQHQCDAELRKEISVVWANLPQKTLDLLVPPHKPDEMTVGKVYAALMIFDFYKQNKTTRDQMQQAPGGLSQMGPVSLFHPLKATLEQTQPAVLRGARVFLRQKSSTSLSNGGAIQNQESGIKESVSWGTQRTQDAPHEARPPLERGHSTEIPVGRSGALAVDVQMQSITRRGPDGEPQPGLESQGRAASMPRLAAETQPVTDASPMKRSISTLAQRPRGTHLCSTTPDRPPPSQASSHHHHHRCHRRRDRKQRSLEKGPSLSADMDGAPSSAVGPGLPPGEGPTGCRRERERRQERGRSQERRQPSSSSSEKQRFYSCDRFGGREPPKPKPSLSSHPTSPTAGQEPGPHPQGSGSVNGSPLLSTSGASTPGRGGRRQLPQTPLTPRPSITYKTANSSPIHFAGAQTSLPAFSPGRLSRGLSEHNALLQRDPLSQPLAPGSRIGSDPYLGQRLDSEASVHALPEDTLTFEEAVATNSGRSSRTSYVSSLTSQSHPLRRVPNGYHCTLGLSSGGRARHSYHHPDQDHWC
T1 sequence (P54284 whole entry partner): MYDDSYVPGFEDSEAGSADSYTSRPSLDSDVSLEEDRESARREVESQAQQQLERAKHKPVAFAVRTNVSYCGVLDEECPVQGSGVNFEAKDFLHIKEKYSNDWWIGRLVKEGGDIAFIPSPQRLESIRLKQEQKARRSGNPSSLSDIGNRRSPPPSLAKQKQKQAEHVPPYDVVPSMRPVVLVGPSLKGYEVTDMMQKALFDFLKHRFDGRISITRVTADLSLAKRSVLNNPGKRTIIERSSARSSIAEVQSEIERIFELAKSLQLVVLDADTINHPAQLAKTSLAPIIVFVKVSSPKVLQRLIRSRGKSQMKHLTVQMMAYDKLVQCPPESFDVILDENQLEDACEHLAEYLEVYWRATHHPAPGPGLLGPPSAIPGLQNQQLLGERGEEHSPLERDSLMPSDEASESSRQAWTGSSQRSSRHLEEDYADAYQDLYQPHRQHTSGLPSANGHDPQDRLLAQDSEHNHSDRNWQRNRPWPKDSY
T1 sequence (P54289 25-946 partner limits assumed): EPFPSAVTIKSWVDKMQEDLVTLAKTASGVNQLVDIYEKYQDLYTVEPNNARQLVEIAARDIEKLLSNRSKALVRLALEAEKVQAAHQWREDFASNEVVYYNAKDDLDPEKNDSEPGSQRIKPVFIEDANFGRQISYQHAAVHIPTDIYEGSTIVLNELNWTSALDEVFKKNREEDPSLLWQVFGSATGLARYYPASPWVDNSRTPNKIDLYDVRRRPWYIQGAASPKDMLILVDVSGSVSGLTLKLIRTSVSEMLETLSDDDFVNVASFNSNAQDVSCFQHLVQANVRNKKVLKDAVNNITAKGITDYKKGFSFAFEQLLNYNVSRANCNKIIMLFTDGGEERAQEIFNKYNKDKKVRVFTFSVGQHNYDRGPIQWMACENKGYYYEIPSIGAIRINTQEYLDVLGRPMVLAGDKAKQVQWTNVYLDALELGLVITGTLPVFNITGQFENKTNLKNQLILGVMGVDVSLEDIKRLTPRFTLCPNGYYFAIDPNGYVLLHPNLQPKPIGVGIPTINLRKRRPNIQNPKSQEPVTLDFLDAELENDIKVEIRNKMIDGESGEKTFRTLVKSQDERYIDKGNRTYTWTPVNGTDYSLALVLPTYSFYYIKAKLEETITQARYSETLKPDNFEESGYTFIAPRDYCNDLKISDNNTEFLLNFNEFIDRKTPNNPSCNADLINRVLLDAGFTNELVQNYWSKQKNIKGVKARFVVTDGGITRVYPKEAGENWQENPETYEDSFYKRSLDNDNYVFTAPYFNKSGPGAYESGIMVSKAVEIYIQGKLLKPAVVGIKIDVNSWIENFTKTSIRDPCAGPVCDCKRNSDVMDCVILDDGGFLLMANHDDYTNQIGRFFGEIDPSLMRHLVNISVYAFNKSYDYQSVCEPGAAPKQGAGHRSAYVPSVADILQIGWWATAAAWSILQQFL
T1 sequence (P54289 947-1103 partner limits assumed): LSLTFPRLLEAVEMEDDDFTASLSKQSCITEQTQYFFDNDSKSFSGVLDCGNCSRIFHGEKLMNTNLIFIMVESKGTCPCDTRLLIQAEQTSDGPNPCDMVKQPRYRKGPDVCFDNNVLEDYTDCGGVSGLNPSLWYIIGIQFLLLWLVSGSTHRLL
Description: VIPR optical membrane potential assay with electrical stimulation. It is filed as cell-based.
Conditions: not given
Summed up:
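HEK293 cells stably expressing CaV2.2, stained with CC2-DMPE (10 μM final) and oxonol voltage-sensitive dyes, compound added with BaCl2. Membrane potential response evoked by 3-5 s electrical stimulation. Read as background-subtracted 460/580 nm emission ratio, response R=Rf/Ri, normalized to mibefradil positive and no-drug negative controls.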
`Cc1c(C(=O)N2CCC3(CC2)OCCO3)oc2ccc(S(=O)(=O)N3CC(C)CC(C)C3)cc12` (centres unmarked) [compound 343] registered an IC50 of 5 to 20 µM.

On to `CC1CCN(S(=O)(=O)c2ccc3oc(C(=O)N4CCC5(CC4)OCCO5)cc3c2)CC1` [compound 106], for which the IC50 was below 20 µM.

In turn, `CC1CCN(S(=O)(=O)c2ccc3[nH]c(C(=O)N4CCC5(CC4)OCCO5)cc3c2)CC1` [compound 54] returned an IC50 of 5 to 20 µM.

`CC1CC(C)CN(S(=O)(=O)c2ccc3oc(C(=O)N4CCC5(CC4)OCCO5)cc3c2)C1` (centres unmarked) [compound 156] yielded an IC50 below 5 µM.

In turn, `CC1CC(C)CN(S(=O)(=O)c2ccc3[nH]c(C(=O)N4CCC5(CC4)OCCO5)cc3c2)C1` (centres unmarked) [compound 344] registered an IC50 below 5 µM.

Still in this assay, the particulars now being: Table 3, biological assay data; read-out: IC50.
Turning to `O=C(c1cc2cc(S(=O)(=O)N3CCCCCC3)ccc2o1)N1CCCCC1` [compound 96], the IC50 was 5 to 20 µM.

`CCN(CC)S(=O)(=O)c1ccc2oc(C(=O)N3CCCCC3C)c(C)c2c1` (centres unmarked) [compound 112]: the IC50 lay within 5 to 20 µM.

On to `Cc1c(C(=O)NC2CCC(C)CC2)oc2ccc(S(=O)(=O)N3CCOCC3)cc12` (centres unmarked) [compound 39], for which the IC50 is below 20 µM.

As for `Cc1c(C(=O)NCc2ccccn2)oc2ccc(S(=O)(=O)N3CC(C)CC(C)C3)cc12` (centres unmarked) [compound 73], the IC50 is below 20 µM.

For `CC1CC(C)CN(S(=O)(=O)c2ccc3c(c2)cc(C(=O)NCc2ccccc2)n3S(=O)(=O)c2ccccc2)C1` (centres unmarked) [compound 452], the IC50 is below 5 µM.

Consider `CC1CC(C)CN(C(=O)c2cc3cc(S(=O)(=O)N4CC(C)CC(C)C4)ccc3[nH]2)C1` (centres unmarked) [compound 425], for which the concentration for half-maximal inhibition (IC50) is below 5 µM.

Consider `Cc1c(C(=O)N2CC(C)CC(C)C2)[nH]c2ccc(S(=O)(=O)N3CC(C)CC(C)C3)cc12` (centres unmarked) [compound 60], for which the IC50 is below 5 µM.

Turning to `CCN(CC)Cc1cc2cc(S(=O)(=O)N3CCC(C)CC3)ccc2[nH]1` [compound 326], the IC50 was below 5 µM.

As for `CC1CCN(C(=O)c2cc3cc(S(=O)(=O)N4CCC(C)CC4)ccc3o2)CC1` [compound 273], the IC50 was below 5 µM.

As for `Cc1c(C(=O)NCC2CCCO2)[nH]c2ccc(S(=O)(=O)N3CCC(C)CC3)cc12` (centres unmarked) [compound 355], the IC50 was in the range of 5 to 20 µM.

With `Cc1c(C(=O)N2CCC(C)CC2)oc2ccc(S(=O)(=O)N3CCCCC3)cc12` [compound 279], the IC50 was 5 to 20 µM.

Consider `Cc1c(C(=O)NCC2COc3ccccc3O2)oc2ccc(S(=O)(=O)N(C)C3CCCCC3)cc12` (centres unmarked) [compound 200], for which the IC50 is 5 to 20 µM.

Take `CCCCN(C)C(=O)c1oc2ccc(S(=O)(=O)N(CC)CC)cc2c1C` [compound 95]: the IC50 lay within 5 to 20 µM.

`Cc1c(C(=O)N2CCN(C)CC2)oc2ccc(S(=O)(=O)N3CCC(C)CC3)cc12` [compound 385]: the IC50 lay within 5 to 20 µM.

`CCN(CC)S(=O)(=O)c1ccc2oc(C(=O)N3CCCC(C)C3)c(C)c2c1` (centres unmarked) [compound 388]: the IC50 was in the range of 5 to 20 µM.

Turning to `CCN(CC)S(=O)(=O)c1ccc2oc(C(=O)N3CCCCCC3)c(C)c2c1` [compound 341], the IC50 fell in the range of 5 to 20 µM.

Regarding `Cc1c(C(=O)NCC2CCCO2)oc2ccc(S(=O)(=O)N3CCOCC3)cc12` (centres unmarked) [compound 149], the IC50 is below 20 µM.

On to `CCN(CC)C(=O)c1cc2cc(S(=O)(=O)N3CCC(C)CC3)ccc2[nH]1` [compound 315], for which the IC50 is below 5 µM.

As to `CC1CC(C)CN(S(=O)(=O)c2ccc3[nH]c(C(=O)NCCc4ccccc4)cc3c2)C1` (centres unmarked) [compound 289], the IC50 is below 5 µM.

With `CCN(CC)S(=O)(=O)c1ccc2oc(C(=O)NC)c(C)c2c1` [compound 51], the IC50 is below 20 µM.

For `CC1CCN(S(=O)(=O)c2ccc3cc(C(=O)NC4CC4)[nH]c3c2)CC1` [compound 139], the IC50 was in the range of 5 to 20 µM.

As to `COc1ccc(CNS(=O)(=O)c2ccc3oc(C(=O)NC4CC4)c(C)c3c2)cc1` [compound 255], the IC50 is below 20 µM.

For the compound `CNC(=O)c1cc2cc(S(=O)(=O)N3CC(C)CC(C)C3)ccc2n1C` (centres unmarked) [compound 435], the IC50 is below 5 µM.

For the compound `CC1CCN(C(=O)c2cc3cc(S(=O)(=O)N4CCC(C)CC4)ccc3[nH]2)CC1` [compound 147], the IC50 was below 5 µM.

With `CC1CC(C)CN(S(=O)(=O)c2ccc3oc(C(=O)N4CCCC4)cc3c2)C1` (centres unmarked) [compound 184], the IC50 is below 5 µM.

On to `Cc1c(C(=O)NC2CC2)oc2ccc(S(=O)(=O)Nc3ccncc3)cc12` [compound 207], for which the IC50 was below 20 µM.

For `Cc1c(C(=O)N2CCCCC2C)[nH]c2ccc(S(=O)(=O)N3CCC(C)CC3)cc12` (centres unmarked) [compound 239], the IC50 was in the range of 5 to 20 µM.

For `CC1CCN(S(=O)(=O)c2ccc3oc(C(=O)NCCCc4ccccc4)cc3c2)CC1` [compound 90], the IC50 is below 5 µM.

As to `Cc1c(C(=O)NCC2CCCO2)oc2ccc(S(=O)(=O)N3CCCC(C)C3)cc12` (centres unmarked) [compound 205], the IC50 fell in the range of 5 to 20 µM.

Consider `O=C(NC1CC1)c1cc2cc(NS(=O)(=O)C3CC3)ccc2[nH]1` [compound 71], for which the IC50 is below 20 µM.

Regarding `Cc1c(C(=O)NC2CC2)oc2ccc(S(=O)(=O)Nc3nncs3)cc12` [compound 133], the IC50 is below 20 µM.

Take `COc1ccccc1CNC(=O)c1oc2ccc(S(=O)(=O)N3CCCCC3)cc2c1C` [compound 76]: the IC50 fell in the range of 5 to 20 µM.

In the case of `CCOC(=O)N1CCN(C(=O)c2cc3cc(S(=O)(=O)N4CCCCCC4)ccc3[nH]2)CC1` [compound 72], the IC50 was in the range of 5 to 20 µM.

`Cc1c(C(=O)NCCCc2ccccc2)oc2ccc(S(=O)(=O)N3CCCC(C)C3)cc12` (centres unmarked) [compound 401]: the IC50 was below 5 µM.

Take `Cc1c(C(=O)NC2CC2)oc2ccc(S(=O)(=O)N3CCCC(F)(F)C3)cc12` [compound 426]: the IC50 is 5 to 20 µM.

Take `CC1CC(C)CN(C(=O)c2cc3cc(S(=O)(=O)N4CCCCCC4)ccc3o2)C1` (centres unmarked) [compound 226]: the IC50 is below 5 µM.

Turning to `Cc1c(C(=O)NCc2ccccc2)oc2ccc(S(=O)(=O)N3CCCCC3)cc12` [compound 305], the 50% inhibitory concentration (IC50) lay within 5 to 20 µM.

Take `CCN(CC)C(=O)c1oc2ccc(S(=O)(=O)N3CCCC(C)C3)cc2c1C` (centres unmarked) [compound 199]: the IC50 was below 5 µM.

As to `CC1CCN(S(=O)(=O)c2ccc3oc(C(=O)N(C)Cc4ccccc4)cc3c2)CC1` [compound 433], the IC50 was below 5 µM.

Regarding `Cc1c(C(=O)NCC2CCCO2)[nH]c2ccc(S(=O)(=O)N3CC(C)CC(C)C3)cc12` (centres unmarked) [compound 281], the IC50 is below 5 µM.

As to `Cc1c(C(=O)NCc2ccccc2)[nH]c2ccc(S(=O)(=O)N3CCC(C)CC3)cc12` [compound 120], the concentration for half-maximal inhibition (IC50) is below 5 µM.

Consider `Cc1c(C(=O)N2CCCC(C)C2)oc2ccc(S(=O)(=O)N3CC(C)CC(C)C3)cc12` (centres unmarked) [compound 378], for which the IC50 was below 5 µM.

As to `Cc1c(C(=O)N2CCC(C)CC2)oc2ccc(S(=O)(=O)N3CCOCC3)cc12` [compound 163], the half-maximal inhibitory concentration (IC50) is below 20 µM.

On to `Cc1c(C(=O)NC2CCCCC2)[nH]c2ccc(S(=O)(=O)N3CCC(C)CC3)cc12` [compound 424], for which the IC50 is 5 to 20 µM.

`Cc1c(C(=O)N2CCCC(C)C2)[nH]c2ccc(S(=O)(=O)N3CCC(C)CC3)cc12` (centres unmarked) [compound 81]: the IC50 is below 5 µM.

Consider `Cc1c(C(=O)N2CCN(C)CC2)[nH]c2ccc(S(=O)(=O)N3CCCCCC3)cc12` [compound 3], for which the IC50 is below 20 µM.

Consider `Cc1c(C(=O)N2CCCC2)oc2ccc(S(=O)(=O)N3CCCCC3)cc12` [compound 18], for which the IC50 is 5 to 20 µM.

As to `Cc1c(C(=O)NCCCN2CCOCC2)oc2ccc(S(=O)(=O)N3CC(C)CC(C)C3)cc12` (centres unmarked) [compound 79], the IC50 was below 5 µM.

Regarding `CCN(CC)S(=O)(=O)c1ccc2oc(C(=O)NCc3ccccc3)c(C)c2c1` [compound 250], the concentration for half-maximal inhibition (IC50) fell in the range of 5 to 20 µM.

As to `CCN(CC)S(=O)(=O)c1ccc2oc(C(=O)NCc3ccc(C)cc3)c(C)c2c1` [compound 298], the half-maximal inhibitory concentration (IC50) lay in the range of 5 to 20 µM.

On to `CNC(=O)c1oc2ccc(S(=O)(=O)N3CCCCCC3)cc2c1C` [compound 145], for which the IC50 is below 20 µM.

Turning to `Cc1c(C(=O)NC2CCCCC2)oc2ccc(S(=O)(=O)N3CCC(C)CC3)cc12` [compound 465], the IC50 lay within 5 to 20 µM.

`CCOC(=O)N1CCN(C(=O)c2cc3cc(S(=O)(=O)N4CCC(C)CC4)ccc3[nH]2)CC1` [compound 84]: the IC50 was below 5 µM.

`O=C(NCCCc1ccccc1)c1cc2cc(S(=O)(=O)N3CCCCCC3)ccc2o1` [compound 40]: the IC50 was below 5 µM.

Take `Cc1c(C(=O)NCC2CCOCC2)oc2ccc(S(=O)(=O)N3CC(C)CC(C)C3)cc12` (centres unmarked) [compound 242]: the IC50 was below 5 µM.

For the compound `Cc1c(C(=O)N2CCCCCC2)oc2ccc(S(=O)(=O)N3CCC(C)CC3)cc12` [compound 347], the IC50 is 5 to 20 µM.

In the case of `Cc1c(C(=O)NCCc2ccccc2)[nH]c2ccc(S(=O)(=O)N3CC(C)CC(C)C3)cc12` (centres unmarked) [compound 13], the IC50 was below 5 µM.

For the compound `Cc1c(C(=O)NC2CCCC2)[nH]c2ccc(S(=O)(=O)N3CCCCCC3)cc12` [compound 258], the IC50 is 5 to 20 µM.

For `Cc1c(C(=O)N2CCCCC2)[nH]c2ccc(S(=O)(=O)N3CCC(C)CC3)cc12` [compound 74], the IC50 is below 5 µM.

In the case of `CN1CCN(C(=O)c2cc3cc(S(=O)(=O)N4CCCCCC4)ccc3n2S(=O)(=O)c2ccccc2)CC1` [compound 135], the IC50 lay within 5 to 20 µM.

Consider `CC1CCN(S(=O)(=O)c2ccc3[nH]cc(C(=O)N4CCN(C)CC4)c3c2)CC1` [compound 338], for which the IC50 is below 20 µM.

For `CC1CCN(S(=O)(=O)c2ccc3oc(C(=O)N4CCCCCC4)cc3c2)CC1` [compound 246], the IC50 is below 5 µM.

In the case of `CNC(=O)c1cc2cc(S(=O)(=O)N3CCCCCC3)ccc2[nH]1` [compound 303], the IC50 was below 5 µM.

Regarding `CCOC(=O)C1CCN(C(=O)c2oc3ccc(S(=O)(=O)N4CCCCCC4)cc3c2C)CC1` [compound 19], the IC50 is below 5 µM.

Turning to `Cc1c(C(=O)N2CC(C)CC(C)C2)oc2ccc(S(=O)(=O)N3CCC(C)CC3)cc12` (centres unmarked) [compound 33], the IC50 lay within 5 to 20 µM.

Consider `Cc1c(C(=O)N2CCCCCC2)[nH]c2ccc(S(=O)(=O)N3CC(C)CC(C)C3)cc12` (centres unmarked) [compound 362], for which the IC50 is below 5 µM.

For the origin of these results see patent US8211935B2, “Heterocyclic derivatives for modulation of calcium channels” (Vertex Pharmaceuticals Incorporated, priority 2004, dated 2012).
